Test results published in PubChem BioAssay AID1963869 (Molecular Pharmacology Branch, DTP, NCI, 2024).

System: KRAS patient-derived spheroids with HUVEC/MSC, viability
Assay: Anticancer human tumor 323965-272-R-J2-PDC patient-derived pancreatic carcinoma cell line growth inhibition [KRAS2]
Conditions: for IC50: curve of first compound; for viability, T/C: stronger effect = lower value; active = viability on the fitted dose curve at most 10% of control; inactive = the rest
Excerpt: Multicellular complex tumor spheroid response to RAS pathway inhibitors in combination with a targeted agents in patient-derived cell lines with oncogenic KRAS variants from multiple cancer types
A high-throughput screen of multi-cell type tumor spheroids was designed to identify active combinations of targeted small molecules and KRAS pathway inhibitors. Complex spheroids include a stromal component modeled by human endothelial cells (HUVEC) and fibroblasts modeled by human mesenchymal stem cells (MSCs). The concentration ranges selected for each drug and investigational agent were based upon clinically achievable concentrations if the clinical Cmax of the agent was known.
Compounds. The drugs and investigational agents: BI-3406 (NSC825286), BAY-293 (NSC824723), batoprotafib (TNO155; NSC825523), sotorasib (AMG 510; NSC818433), MRTX1257 (NSC819558), elimusertib (BAY 1895344; NSC800525), molibresib (GSK525762; NSC774829), temuterkib (LY3214996; NSC803410), venetoclax (NSC766270), alisertib (NSC759677), olaparib (NSC753686), talazoparib (NSC767125), erdafitinib (NSC781556), ipatasertib (NSC767898), cabozantinib (NSC761068), nintedanib (NSC756659), abemaciclib (NSC768073), docetaxel (NSC628503), trametinib (NSC758246), and sapanisertib (NSC764658) were obtained from the National Cancer Institute (NCI) Developmental Therapeutics Program Chemical Repository. The FDA-approved anticancer drug set is available from the Developmental Therapeutics Program. […] The stock solutions were prepared in dimethyl sulfoxide (DMSO, Sigma-Aldrich, St. Louis, MO, cat. D2650) at 800-fold the tested concentration and stored at -70 degrees C prior to their use. All drugs and investigational agents were tested over a range starting from a high concentration at or near the clinical Cmax and decreasing in half-log increments. If the clinical Cmax for an agent had not been determined, the highest concentration tested was 10 microM.
Cell Culture. All cells were maintained in an incubator at 37 degrees C and 5% CO2 with 95% humidity. The PDC lines were cultured according to standard operating procedures established by the NCI PDMR (https://pdmr.cancer.gov/sops/default.htm). Briefly, all PDCs were thawed and cultured in Matrigel-coated flasks prepared with a working solution of 1X Ham's F-12 nutrient mix, without supplementation (Invitrogen, Waltham, MA, cat. 11765054), 100 U/mL penicillin-streptomycin (Invitrogen, cat. 15140122), and 2.5% Matrigel (Corning Inc., Corning, NY, cat. 354248) for the first three passages. All PDCs were cultured in complete DMEM/F-12 media containing advanced DMEM/F-12 (Invitrogen, cat. 12634028), 4.9% defined fetal bovine serum, heat inactivated (HyClone Laboratories Inc., Logan, UT, cat. SH30070.03HI), 389 ng/mL hydrocortisone (Sigma-Aldrich, cat. H4001), 9.7 ng/mL human EGF recombinant protein (Invitrogen, cat. PHG0313), 23.4 microg/mL adenine (Sigma-Aldrich, cat. A2786), 97.3 U/mL penicillin-streptomycin (Invitrogen, cat. 15140122), 1.9 mM L-glutamine (Invitrogen, cat. 25030081), and 9.7 microM Y-27632 dihydrochloride (Tocris Bioscience, Bristol, United Kingdom, cat. 1254). The PDCs were cultured in complete DMEM/F12 media without 9.7 microM Y-27632 dihydrochloride for at least two passages prior to the screen. The established cell line HOP-62 was cultured in RPMI 1640 medium, HEPES (Invitrogen, cat. 22400105) with 10% defined fetal bovine serum (HyClone Laboratories Inc., cat. SH30070.03) and 2 mM L-glutamine (Invitrogen, cat. 25030081). The pooled donor HUVEC were cultured in endothelial cell growth medium 2 (PromoCell, Heidelberg, Germany, cat. C-22011) and the hMSC were cultured in mesenchymal stem cell growth medium 2 (PromoCell, cat. C-28009). For all experiments, HUVEC and hMSC were used at passages </=5, while the malignant cell lines were used at passages </=15. […]

[1] = second compound 0.1 µM, first compound 0.0316 µM
[2] = second compound 0.1 µM, first compound 0.1 µM
[3] = second compound 0.316 µM, first compound 0.0316 µM
[4] = second compound 0.316 µM, first compound 0.1 µM
[5] = second compound 1 µM, first compound 0.0316 µM
[6] = second compound 1 µM, first compound 0.1 µM
[7] = second compound 3.16 µM, first compound 0.0316 µM
[8] = second compound 3.16 µM, first compound 0.1 µM
[9] = second compound 10 µM, first compound 0.0316 µM
[10] = second compound 10 µM, first compound 0.1 µM
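Also: spheroids exposed to agents for 7 days.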

CC(C)n1nc(-c2ccc3oc(N)nc3c2)c2c(N)ncnc21 + C=CC(=O)N1CCN(c2nc(=O)n(-c3c(C)ccnc3C(C)C)c3nc(-c4c(O)cccc4F)c(F)cc23)C(C)C1
0.394 nM: IC50 (second compound 0.316 µM)
0.514 nM: IC50 (second compound 1 µM)
inactive: viability, T/C (second compound 0.1 µM, first compound 0.000316 µM) 53.7% | viability, T/C (second compound 0.1 µM, first compound 0.001 µM) 41.4% | viability, T/C (second compound 0.1 µM, first compound 0.00316 µM) 28.3% | viability, T/C (second compound 0.1 µM, first compound 0.01 µM) 19.1% | viability, T/C [1] 15.9% | viability, T/C [2] 12.3% | viability, T/C (second compound 0.316 µM, first compound 0.000316 µM) 53.2% | viability, T/C (second compound 0.316 µM, first compound 0.001 µM) 37.8% | viability, T/C (second compound 0.316 µM, first compound 0.00316 µM) 30.5% | viability, T/C (second compound 0.316 µM, first compound 0.01 µM) 22.1% | viability, T/C [3] 14.8% | viability, T/C [4] 12.5% | viability, T/C (second compound 1 µM, first compound 0.000316 µM) 56.9% | viability, T/C (second compound 1 µM, first compound 0.001 µM) 41.1% | viability, T/C (second compound 1 µM, first compound 0.00316 µM) 28.6% | viability, T/C (second compound 1 µM, first compound 0.01 µM) 19.3% | viability, T/C [5] 15.6% | viability, T/C [6] 13.3% | viability, T/C (second compound 3.16 µM, first compound 0.000316 µM) 51.6% | viability, T/C (second compound 3.16 µM, first compound 0.001 µM) 41.9% | viability, T/C (second compound 3.16 µM, first compound 0.00316 µM) 29% | viability, T/C (second compound 3.16 µM, first compound 0.01 µM) 17.5% | viability, T/C [7] 13.7% | viability, T/C [8] 12.3% | viability, T/C (second compound 10 µM, first compound 0.000316 µM) 48.8% | viability, T/C (second compound 10 µM, first compound 0.001 µM) 36.3% | viability, T/C (second compound 10 µM, first compound 0.00316 µM) 24.1% | viability, T/C (second compound 10 µM, first compound 0.01 µM) 19.4% | viability, T/C [9] 12.4% | viability, T/C [10] 12.7%
0.381 nM: IC50 (second compound 3.16 µM)
< 0.316 nM: IC50 (second compound 10 µM)
0.446 nM: IC50 (second compound 0.1 µM)

COc1cc2nccc(Oc3ccc(NC(=O)C4(C(=O)Nc5ccc(F)cc5)CC4)cc3)c2cc1OC + C=CC(=O)N1CCN(c2nc(=O)n(-c3c(C)ccnc3C(C)C)c3nc(-c4c(O)cccc4F)c(F)cc23)C(C)C1
> 10000 nM: IC50 (second compound 0.1 µM) | IC50 (second compound 0.316 µM) | IC50 (second compound 1 µM) | IC50 (second compound 3.16 µM)
inactive: viability, T/C [1] 54.7% | viability, T/C [2] 56% | viability, T/C (second compound 0.1 µM, first compound 0.316 µM) 58.8% | viability, T/C (second compound 0.1 µM, first compound 1 µM) 62.6% | viability, T/C (second compound 0.1 µM, first compound 3.16 µM) 64.2% | viability, T/C (second compound 0.1 µM, first compound 10 µM) 57.8% | viability, T/C [3] 52.8% | viability, T/C [4] 55.1% | viability, T/C (second compound 0.316 µM, first compound 0.316 µM) 58.1% | viability, T/C (second compound 0.316 µM, first compound 1 µM) 61.8% | viability, T/C (second compound 0.316 µM, first compound 3.16 µM) 62.5% | viability, T/C (second compound 0.316 µM, first compound 10 µM) 59.8% | viability, T/C [5] 54.5% | viability, T/C [6] 52.3% | viability, T/C (second compound 1 µM, first compound 0.316 µM) 59.9% | viability, T/C (second compound 1 µM, first compound 1 µM) 61.7% | viability, T/C (second compound 1 µM, first compound 3.16 µM) 63.8% | viability, T/C (second compound 1 µM, first compound 10 µM) 61.5% | viability, T/C [7] 57.1% | viability, T/C [8] 56.9% | viability, T/C (second compound 3.16 µM, first compound 0.316 µM) 56.2% | viability, T/C (second compound 3.16 µM, first compound 1 µM) 61.2% | viability, T/C (second compound 3.16 µM, first compound 3.16 µM) 58.6% | viability, T/C (second compound 3.16 µM, first compound 10 µM) 55.6% | viability, T/C [9] 47.6% | viability, T/C [10] 54.2% | viability, T/C (second compound 10 µM, first compound 0.316 µM) 45.5% | viability, T/C (second compound 10 µM, first compound 1 µM) 61.9% | viability, T/C (second compound 10 µM, first compound 3.16 µM) 29.4% | viability, T/C (second compound 10 µM, first compound 10 µM) 44.2%
1190 nM: IC50 (second compound 10 µM)
